{"source": "patent US11858946B2", "about": "“Small molecules active against gram-negative bacteria” (The Board of Trustees of the University of Illinois, priority 2016, dated 2024)", "key": {"E. coli MG1655 [1]": {"tested_on": "E. coli MG1655", "test": "Accumulation assay in whole-cell E. coli, LC-MS/MS quantification", "conditions": "for accumulation in E. coli (in words): E. coli whole cells; for accumulation in E. coli (in words) / accumulation in E. coli: 50 μM compound, 10 minutes; for accumulation in E. coli: E. coli MG1655 whole cells, 37° C., LC-MS/MS; for accumulation upon co-treatment with colistin: E. coli, 6.0 μM colistin sulfate added before compound", "description": "Antimicrob. Agents Chemother. 36, 2622-2627, (1992); Davis, T. D., Gerry, C. J. & Tan, D. S. General platform for systematic quantitative evaluation of small-molecule permeability in bacteria. ACS Chem. Biol. 9, 2535-2544, (2014); and Cai, H., Rose, K., Liang, L. H., Dunham, S. & Stover, C. Development of a liquid chromatography/mass spectrometry-based drug accumulation assay in Pseudomonas aeruginosa. Anal. Biochem. 385, 321-325, (2009); with LC-MS/MS used to quantify the accumulation of each compound. E. coli MG1655 was utilized for these experiments as this strain has been only minimally altered from its K-12 progenitor. To ensure the assay was reporting on compound accumulation, as opposed to non-specific affinity for the outer membrane, several control experiments were conducted. The assay method was evaluated with antibiotics that have known high or low levels of accumulation, based on published accumulation data and antibacterial activity against E. coli. […] Colistin is known to potentiate the activity of low-accumulating antibiotics by aiding the diffusion of lipophilic compounds across the membrane.\nFor each replicate, 2.5 mL of an overnight culture of E. coli was diluted into 250 mL of fresh Luria Bertani (LB) broth (Lennox) and grown at 37° C. with shaking to an OD600=0.55. The bacteria were pelleted at 3,220 rcf for 10 minutes at 4° C. and the supernatant was discarded. The pellets were re-suspended in 40 mL of phosphate buffered saline (PBS) and pelleted as before, and the supernatant was discarded. The pellets were re-suspended in 8.8 mL of fresh PBS and aliquoted into ten 1.5 mL eppendorf tubes (875 μL each). The number of colony forming units (CFUs) was determined via a calibration curve. The samples were equilibrated at 37° C. with shaking for 5 minutes, compound was added ([final]=50 μM), and then samples were incubated at 37° C. with shaking for 10 minutes. […] After incubation, 800 μL of the cultures were carefully layered on 700 μL of silicone oil (9:1 AR20/Sigma High Temperature, cooled to −78° C.). Bacteria were pelleted through the oil by centrifuging at 13,000 rcf for 2 minutes at room temperature (supernatant remains above the oil); the supernatant and oil were then removed by pipetting. To lyse the samples, each pellet was dissolved in 200 μL of water, and then they were subjected to three freeze-thaw cycle of three minutes in liquid nitrogen followed by three minutes in a water bath at 65° C. The lysates were pelleted at 13,000 rcf for 2 minutes at room temperature and the supernatant was collected (180 μL). The debris was re-suspended in 100 μL of methanol and pelleted as before. The supernatants were removed and combined with the previous supernatants collected. Finally, remaining debris was removed by centrifuging at 20,000 rcf for 10 minutes at room temperature. Supernatants were analyzed by LC-MS/MS.\nSamples were analyzed with the 5500 QTRAP LC/MS/MS system (AB Sciex, Foster City, CA) with a 1200 series HPLC system (Agilent Technologies, Santa Clara, CA) including a degasser, an autosampler, and a binary pump. The LC separation was performed on an Agilent SB-Aq column (4.6×50 mm, 5 μm) (Agilent Technologies, Santa Clara, CA) with mobile phase A (0.1% formic acid in water) and mobile phase B (0.1% formic acid in acetonitrile). The flow rate was 0.3 mL/min. The linear gradient was as follows: 0-3 min, 100% A; 10-15 min, 2% A; 15.5-21 min, 100% A. The autosampler was set at 5° C. The injection volume was 15 μL. Mass spectra were acquired with both positive electrospray ionization (ESI) at the ion spray voltage of 5500 V and negative ESI at the ion spray voltage of −4500 V. The source temperature was 450° C. The curtain gas, ion source gas 1, and ion source gas 2 were 33, 50, and 65, respectively."}, "E. coli MG1655 [2]": {"tested_on": "E. coli MG1655", "test": "Antibiotic susceptibility test (microdilution broth), E. coli MG1655", "format": "cell-based, Escherichia coli", "conditions": "for MIC: Escherichia coli", "method": "(§1) 6DNM and its derivatives were further evaluated against an expanded panel of Gram-negative pathogens, laboratory strains and clinical isolates of ESKAPE pathogens E. coli, Acinetobacter baumannii, Klebsiella pneumoniae, Enterobacter cloacae, and Pseudomonas aeruginosa (Table 1 of FIG. 19).\n(§2) Susceptibility testing was performed in triplicate, using the microdilution broth method as outlined by the Clinical and Laboratory Standards Institute. Mueller Hinton (MH) broth was used."}, "Staphylococcus aureus": {"tested_on": "Staphylococcus aureus", "test": "Antibiotic susceptibility test (microdilution broth), S. aureus", "format": "cell-based"}, "[3]": {"tested_on": "ΔompR strain of E. coli (OmpF and OmpC knockout) vs parental E. coli BW25113", "source_text": "A ΔompR strain of E. coli from the KEIO knockout collection was therefore chosen to effectively knockout both OmpF and OmpC (knockout was validated by analyzing the outer membrane proteins of the ΔompR strain compared to the parental strain, data not shown)."}, "[4]": {"tested_on": "E. coli, Acinetobacter baumannii, Klebsiella pneumoniae, Enterobacter cloacae, and Pseudomonas aeruginosa", "test": "Antibiotic susceptibility test (microdilution broth), expanded panel of Gram-negative pathogens", "format": "cell-based", "conditions": "for activity against expanded panel of Gram-negative pathogens (in words): laboratory strains and clinical isolates of ESKAPE pathogens", "method": "as §1, §2"}, "E. coli (ATCC BAA-2469)": {"tested_on": "E. coli (ATCC BAA-2469)", "test": "Antibiotic susceptibility test (microdilution broth), NDM-1 producing E. coli clinical isolate", "format": "cell-based", "conditions": "Escherichia coli, ATCCBAA2469, read-out: MIC against multi-drug resistant NDM-1 producing E. coli ATCC BAA-2469", "method": "as §1, §2"}}, "note": "Read-outs that look alike come from different tables or passages of the source.", "data": [{"compound": "CC(=O)NCC1COc2c3c(cc4c(C)cc(=O)n1c24)c(C)cc(=O)n3C", "note": "(centres unmarked) [Compound 6DNM-amide]", "values": [{"measurement": "accumulation in E. coli (in words)", "setting": "E. coli MG1655 [1]", "value": "do not accumulate"}, {"measurement": "activity against E. coli (in words)", "setting": "E. coli MG1655 [2]", "value": "no activity"}]}, {"compound": "Cc1cc(=O)n(C)c2c3c4c(cc12)c(C)cc(=O)n4C(CN)CO3", "note": "(centres unmarked) [Compound 6DNM-NH3]", "values": [{"measurement": "activity against S. aureus (in words)", "setting": "Staphylococcus aureus", "value": "retains activity"}, {"measurement": "accumulation in E. coli", "setting": "E. coli MG1655 [1]", "value": 1114, "unit": "nmol/10^12 CFUs"}, {"measurement": "accumulation in ΔompR strain compared to parental/WT strain", "setting": "[3]", "value": "decrease in accumulation"}, {"measurement": "activity against other clinical isolates of E. coli, A. baumannii, K. pneumonia, and E. cloacae (in words)", "setting": "[4]; clinical isolates", "value": "good activity against most of the other clinical isolates"}, {"measurement": "activity against expanded panel of Gram-negative pathogens (in words)", "setting": "[4]", "value": "antibacterial activity against all of these Gram-negative pathogens except P. aeruginosa"}, {"measurement": "MIC", "setting": "E. coli (ATCC BAA-2469)", "value": 4, "unit": "µg/mL"}, {"measurement": "MIC", "setting": "E. coli MG1655 [2]; MG1655, microdilution broth, MH broth, read-out: MIC against E. coli MG1655", "value": 0.5, "unit": "µg/mL"}]}, {"compound": "NC1COC2C(O)COC12", "note": "(centres unmarked) [Compound 20, mono-amine isomannide]", "values": [{"measurement": "accumulation in E. coli (in words)", "setting": "E. coli MG1655 [1]", "value": "does not accumulate"}]}, {"compound": "O=C(O)c1cn(C2CC2)c2cc(N3CCNCC3)c(F)cc2c1=O", "note": "[ciprofloxacin, reference compound]", "values": [{"measurement": "reduction of CFUs during accumulation assay (factor)", "setting": "E. coli MG1655 [1]; treatment for 10 minutes, 50 μM", "value": "five"}, {"measurement": "accumulation in ΔompR strain compared to parental/WT strain", "setting": "[3]", "value": "significant decrease in accumulation"}]}, {"compound": "Cc1cc(=O)n(C)c2c3c4c(cc12)c(C)cc(=O)n4CCO3", "note": "[Compound 6DNM]", "values": [{"measurement": "MIC", "setting": "Staphylococcus aureus; Staphylococcus aureus, microdilution broth, MH broth, read-out: MIC against Staphylococcus aureus", "value": "0.06 to 1", "unit": "µg/mL"}, {"measurement": "accumulation in E. coli", "setting": "E. coli MG1655 [1]", "value": 298, "unit": "nmol/10^12 CFUs"}, {"measurement": "activity against expanded panel of Gram-negative pathogens (in words)", "setting": "[4]", "value": "no notable activity"}, {"measurement": "MIC", "setting": "E. coli MG1655 [2]; MG1655, read-out: MIC versus E. coli", "value": "> 32", "unit": "µg/mL"}]}, {"compound": "CO[C@@H]1[C@@H](OC(N)=O)[C@@H](O)[C@H](Oc2ccc3c(O)c(NC(=O)c4ccc(O)c(CC=C(C)C)c4)c(=O)oc3c2C)OC1(C)C", "note": "[novobiocin, reference compound]", "values": [{"measurement": "accumulation upon co-treatment with colistin", "setting": "E. coli MG1655 [1]", "value": "increase in accumulation"}]}, {"compound": "CO[C@H]1/C=C/O[C@@]2(C)Oc3c(C)c(O)c4c(O)c(c(/C=N/N5CCN(C)CC5)c(O)c4c3C2=O)NC(=O)/C(C)=C\\C=C\\[C@H](C)[C@H](O)[C@@H](C)[C@@H](O)[C@@H](C)[C@H](OC(C)=O)[C@@H]1C", "note": "[rifampicin, reference compound]", "values": [{"measurement": "accumulation upon co-treatment with colistin", "setting": "E. coli MG1655 [1]", "value": "increase in accumulation"}]}, {"compound": "Cc1cc(=O)n(C)c2c3c4c(cc12)c(C)cc(=O)n4C(CC(=O)O)CO3", "note": "(centres unmarked) [Compound 6DNM-acid]", "values": [{"measurement": "accumulation in E. coli (in words)", "setting": "E. coli MG1655 [1]", "value": "do not accumulate"}, {"measurement": "activity against E. coli (in words)", "setting": "E. coli MG1655 [2]", "value": "no activity"}]}]}
